pIC50: −log10 of the molar value.

This assay deals with Polθ polymerase (Homo sapiens (Human), UniProt O75417). Briefly: Polθ polymerase activity assay (PicoGreen method). The settings on record: His-TEV-SUMO-tagged Polθ protein (amino acids 1792-2590), PicoGreen fluorescence, in vitro. It is filed as biochemical. Here is the method: The ability of compounds to inhibit Pol 0 polymerase activity was determined by the PicoGreen method in vitro. The His-TEV-SUMO-tagged Polθ protein (amino acids 1792-2590) expressed in E. coli was purified and stored in aliquots at -80° C. […] Test compounds were diluted in 100% DMSO and diluted three-fold into 10 concentration points in a dilution plate (Greiner-781280) using Bravo (Agilent) according to concentration requirements. The compounds diluted in DMSO were then diluted 20-fold in the assay buffer using Bravo. Further, 2 μl of diluted compounds were transferred to the assay plate (Corning-4512) using Bravo. The purified Pol 0 enzyme and primers ((primer strand: […] ID NO: 1):(template strand: […] A mixture containing 10 mM EDTA, 25 mM Tris pH 7.5, and a 1:200 diluted PicoGreen dye (Invitrogen-[…] the reaction. After 30 min of reaction at room temperature in the dark, fluorescence values were read on EnVision 2105 (PerkinElmer) using the Ex480 nm Em520 nm program, and the raw data was analyzed using XLfit to generate IC50 values. The results are shown in the table below.
Chain of Polθ polymerase (O75417 1792-2590): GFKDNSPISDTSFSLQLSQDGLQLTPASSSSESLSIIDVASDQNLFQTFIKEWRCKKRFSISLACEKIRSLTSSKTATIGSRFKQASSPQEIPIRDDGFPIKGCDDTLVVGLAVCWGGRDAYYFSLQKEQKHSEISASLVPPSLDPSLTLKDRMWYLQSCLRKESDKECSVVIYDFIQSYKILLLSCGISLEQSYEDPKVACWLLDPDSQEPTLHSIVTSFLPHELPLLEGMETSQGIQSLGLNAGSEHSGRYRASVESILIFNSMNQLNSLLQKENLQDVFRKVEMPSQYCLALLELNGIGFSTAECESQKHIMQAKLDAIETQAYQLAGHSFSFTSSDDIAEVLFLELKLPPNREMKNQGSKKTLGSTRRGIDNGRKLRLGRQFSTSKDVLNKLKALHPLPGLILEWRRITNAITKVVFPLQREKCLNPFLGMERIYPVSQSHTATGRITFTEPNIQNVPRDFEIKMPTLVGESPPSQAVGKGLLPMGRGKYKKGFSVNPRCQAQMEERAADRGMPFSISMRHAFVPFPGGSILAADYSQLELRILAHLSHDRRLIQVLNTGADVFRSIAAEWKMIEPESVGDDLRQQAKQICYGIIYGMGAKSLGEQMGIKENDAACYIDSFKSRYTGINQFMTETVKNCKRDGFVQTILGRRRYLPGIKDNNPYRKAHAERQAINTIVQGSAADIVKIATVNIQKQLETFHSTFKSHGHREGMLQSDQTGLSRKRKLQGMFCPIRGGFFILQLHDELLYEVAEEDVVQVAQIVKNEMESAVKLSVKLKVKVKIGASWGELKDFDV
The molecule `CN(C(=O)[C@@H]1CNC(=O)N1c1cc(C(F)(F)F)c2c(n1)CC=C2)c1ccc(F)c(Cl)c1F` (single isomer, unassigned) [Compound 9a] gave a pIC50 not below 7.30.
`CN(C(=O)[C@@H]1CNC(=O)N1c1cc(C(F)(F)F)c2c(n1)CC=C2)c1ccc(F)c(Cl)c1F` (single isomer, unassigned) [Compound 9b] gave a negative-log IC50 (pIC50) not below 7.30.
Regarding `CN(C(=O)[C@@H]1CNC(=O)N1c1cc(C(F)(F)F)c2c(n1)CCC2)c1ccc(F)c(Cl)c1F` [Compound 1, (S)—N-(3-chloro-2,4-difluorophenyl)-N-methyl-2-oxo-3-(4-(trifluoromethyl)-6,7-dihydro-5H-cyclopenta[b]pyridin-2-yl)imidazolidine-4-carboxamide], the pIC50 was not below 7.30.
With `CN(C(=O)[C@@H]1CNC(=O)N1c1ccc2c(n1)CCC2)c1ccc(F)c(Cl)c1F` [Compound 2, (S)—N-(3-chloro-2,4-difluorophenyl)-3-(6,7-dihydro-5H-cyclopenta[b]pyridin-2-yl)-N-methyl-2-oxoimidazolidine-4-carboxamide], the pIC50 is 5.30 to 6.30.
For `CN(C(=O)[C@@H]1CNC(=O)N1c1cc(C(F)(F)F)c2c(n1)CCC2=O)c1ccc(F)c(Cl)c1F` [Compound 3, (S)—N-(3-chloro-2,4-difluorophenyl)-N-methyl-2-oxo-3-(5-oxo-4-(trifluoromethyl)-6,7-dihydro-5H-cyclopenta[b]pyridin-2-yl)imidazolidine-4-carboxamide], the negative logarithm of the IC50 (pIC50) is less than 5.30.
In the case of `CN(C(=O)[C@@H]1CNC(=O)N1c1cc(C(F)(F)F)c2sccc2n1)c1ccc(F)c(Cl)c1F` [Compound 4, (S)—N-(3-chloro-2,4-difluorophenyl)-N-methyl-2-oxo-3-(7-(trifluoromethyl)thieno[3,2-b]pyridin-5-yl)imidazoline-4-carboxamide] it was 6.30 to 7.30; in that of `CN(C(=O)[C@@H]1CNC(=O)N1c1cc(C(F)(F)F)c2c(n1)CCCC2)c1ccc(F)c(Cl)c1F` [Compound 5, (S)—N-(3-chloro-2,4-difluorophenyl)-N-methyl-2-oxo-3-(4-(trifluoromethyl)-5,6,7,8-tetrahydroquinolin-2-yl)imidazolidine-4-carboxamide], 5.30 to 6.30.
For `CN(C(=O)[C@@H]1CNC(=O)N1c1cc(C(F)(F)F)c2c(n1)CC[C@H]2O)c1ccc(F)c(Cl)c1F` [Compound 6a], the pIC50 was 5.30 to 6.30.
In the case of `CN(C(=O)[C@@H]1CNC(=O)N1c1cc(C(F)(F)F)c2c(n1)CC[C@]2(C)O)c1ccc(F)c(Cl)c1F` [Compound 8a] it was 5.30 to 6.30; in that of `CN(C(=O)[C@@H]1CNC(=O)N1c1cc(C(F)(F)F)c2c(ncn2C)n1)c1ccc(F)c(Cl)c1F` [Compound 10, (S)—N-(3-chloro-2,4-difluorophenyl)-N-methyl-3-(1-methyl-7-(trifluoromethyl)-1H-imidazo[4,5-b]pyridin-5-yl)-2-oxoimidazolidine-4-carboxamide], less than 5.30.
In the case of `CN(C(=O)[C@@H]1CNC(=O)N1c1cc(C(F)(F)F)c2c(n1)CCC2(F)F)c1ccc(F)c(Cl)c1F` [Compound 11, (S)—N-(3-chloro-2,4-difluorophenyl)-3-(5,5-difluoro-4-(trifluoromethyl)-6,7-dihydro-5H-cyclopentadienyl[b]pyridin-2-yl)-N-methyl-2-oxoimidazolidine-4-carboxamide], the pIC50 was 6.30 to 7.30.
In turn, `CN(C(=O)[C@@H]1CNC(=O)N1c1cc(C(F)(F)F)c2c(n1)C(F)(F)CC2)c1ccc(F)c(Cl)c1F` [Compound 12, (S)—N-(3-chloro-2,4-difluorophenyl)-3-(7,7-difluoro-4-(trifluoromethyl)-6,7-dihydro-5H-cyclopenta[b]pyridin-2-yl)-N-methyl-2-oxoimidazolidine-4-carboxamide] gave a pIC50 not below 7.30.
Next, `CN(C(=O)[C@@H]1CNC(=O)N1c1cc(C(F)(F)F)c2c(n1)C(=O)CC2)c1ccc(F)c(Cl)c1F` [Compound 13, (S)—N-(3-chloro-2,4-difluorophenyl)-N-methyl-2-oxo-3-(7-oxo-4-(trifluoromethyl)-6,7-dihydro-5H-cyclopenta[b]pyridin-2-yl)imidazolidine-4-carboxamide]: not below 7.30; `CN(C(=O)[C@@H]1CNC(=O)N1c1cc(C(F)(F)F)c2ccsc2n1)c1ccc(F)c(Cl)c1F` [Compound 14, (S)—N-(3-chloro-2,4-difluorophenyl)-N-methyl-2-oxo-3-(4-(trifluoromethyl)thieno[2,3-b]pyridin-6-yl)imidazolidine-4-carboxamide]: not below 7.30.
`CN(C(=O)[C@@H]1CNC(=O)N1c1cc(C(F)(F)F)c2ccoc2n1)c1ccc(F)c(Cl)c1F` [Compound 15, (S)—N-(3-chloro-2,4-difluorophenyl)-N-methyl-2-oxo-3-(4-(trifluoromethyl)furo[2,3-b]pyridin-6-yl)imidazolidine-4-carboxamide] had a negative logarithm of the IC50 (pIC50) of 6.30 to 7.30.
`CN(C(=O)[C@@H]1CNC(=O)N1c1cc(C(F)(F)F)c2ccccc2n1)c1ccc(F)c(Cl)c1F` [Compound 17, (S)—N-(3-chloro-2,4-difluorophenyl)-N-methyl-2-oxo-3-(4-(trifluoromethyl)quinolin-2-yl)imidazolidine-4-carboxamide] gave a pIC50 of 6.30 to 7.30.
Regarding `CN(C(=O)[C@@H]1CNC(=O)N1c1cc(C(F)(F)F)c2ccn(C)c2n1)c1ccc(F)c(Cl)c1F` [Compound 18, (S)—N-(3-chloro-2,4-difluorophenyl)-N-methyl-3-(1-methyl-4-(trifluoromethyl)-1H-pyrrolo[2,3-b]pyridin-6-yl)-2-oxoimidazolidine-4-carboxamide], the pIC50 was 6.30 to 7.30.
Take `CN(C(=O)[C@@H]1CNC(=O)N1c1cc(C(F)(F)F)c2c(n1)OCC2)c1ccc(F)c(Cl)c1F` [Compound 20, (S)—N-(3-chloro-2,4-difluorophenyl)-N-methyl-2-oxo-3-(4-(trifluoromethyl)-2,3-dihydrofuro[2,3-b]pyridin-6-yl)imidazolidine-4-carboxamide]: the negative logarithm of the IC50 (pIC50) was 6.30 to 7.30.
As for `CN(C(=O)[C@@H]1CNC(=O)N1c1cc(C(F)(F)F)n2cccc2n1)c1ccc(F)c(Cl)c1F` [Compound 22, (S)—N-(3-chloro-2,4-difluorophenyl)-N-methyl-2-oxo-3-(4-(trifluoromethyl)pyrrolo[1,2-a]pyrimidin-2-yl)imidazolidine-4-carboxamide], the negative logarithm of the IC50 (pIC50) is not below 7.30.
In the case of `CN(C(=O)[C@@H]1CNC(=O)N1c1cc(C(F)(F)F)c2cccn2n1)c1ccc(F)c(Cl)c1F` [Compound 27, (S)—N-(3-chloro-2,4-difluorophenyl)-N-methyl-2-oxo-3-(4-(trifluoromethyl)pyrrolo[1,2-b]pyridazin-2-yl)imidazolidine-4-carboxamide] it was not below 7.30; in that of `O=C1OC[C@@H](c2nc(F)cn2-c2ccc(F)c(Cl)c2)N1c1cc(C(F)(F)F)c2ccsc2n1` [Compound 30, (R)-4-(1-(3-chloro-4-fluorophenyl)-4-fluoro-1H-imidazol-2-yl)-3-(4-(trifluoromethyl)thieno[2,3-b]pyridin-6-yl)oxazolidin-2-one], not below 7.30; in that of `CN(C(=O)[C@@H]1CNC(=O)N1c1cc(C2CC2)c2ncsc2n1)c1ccc(F)c(Cl)c1F` [Compound 31, [(4S)-3-(7-cyclopropyl (1,3-thiazolo[4,5-e]pyridin-5-yl))-2-oxoimidazolidin-4-yl]-N-(3-chloro-2,4-difluorophenyl)-N-methylformamide], not below 7.30.
In the case of `CN(C(=O)[C@@H]1CNC(=O)N1c1cc(C(F)(F)F)c2cc[se]c2n1)c1ccc(F)c(Cl)c1F` [Compound 33] it was not below 7.30; in that of `CN(C(=O)[C@@H]1CNC(=O)N1c1nccn2ccnc12)c1ccc(F)c(Cl)c1F` [Compound 41, (S)—N-(3-chloro-2,4-difluorophenyl)-3-(imidazo[1,2-a]pyrazin-8-yl)-N-methyl-2-oxoimidazolidine-4-carboxamide], less than 5.30; in that of `CSc1cc(N2C(=O)NC[C@H]2C(=O)N(C)c2ccc(F)c(Cl)c2F)nc2scnc12` [Compound 43, (S)—N-(3-chloro-2,4-difluorophenyl)-N-methyl-3-(7-(methylthio)thiazolo[5,4-b]pyridin-5-yl)-2-oxoimidazolidine-4-carboxamide], 6.30 to 7.30.
Molecule `CN(C(=O)[C@@H]1CNC(=O)N1c1cc(SC(F)(F)F)c2ncsc2n1)c1ccc(F)c(Cl)c1F` [Compound 44, (S)—N-(3-chloro-2,4-difluorophenyl)-N-methyl-2-oxo-3-(7-((trifluoromethyl)thio)thiazolo[5,4-b]pyridin-5-yl)imidazolidine-4-carboxamide] had a pIC50 of 6.30 to 7.30.

Broadly, the pIC50 is the IC50 on a negative log10 scale, so that one unit is a factor of ten. Read a high pIC50 as a small IC50.
